Test system: K24384-001-R-PDC complex spheroid viability
Assay: Anticancer human tumor K24384-001-R-PDC patient-derived pancreatic adenocarcinoma cell line growth inhibition
Conditions: for IC50: curve of first compound; for viability, T/C: stronger effect = lower value
Outline: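 Drug combinations with the LSD1 inhibitor iadademstat tested on tumor cells co-cultured as spheroids with endothelial cells and mesenchymal stem cells. Concentrations descended in half-log increments from clinical Cmax or 10 microM.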

[1] = second compound 0.1 µM, first compound 0.0316 µM
[2] = second compound 0.1 µM, first compound 0.1 µM
[3] = second compound 0.1 µM, first compound 0.316 µM
[4] = second compound 0.1 µM, first compound 1 µM
[5] = second compound 0.1 µM, first compound 3.16 µM
[6] = second compound 0.1 µM, first compound 10 µM
[7] = second compound 0.316 µM, first compound 0.0316 µM
[8] = second compound 0.316 µM, first compound 0.1 µM
[9] = second compound 0.316 µM, first compound 0.316 µM
[10] = second compound 0.316 µM, first compound 1 µM
[11] = second compound 0.316 µM, first compound 3.16 µM
[12] = second compound 0.316 µM, first compound 10 µM
[13] = second compound 1 µM, first compound 0.0316 µM
[14] = second compound 1 µM, first compound 0.1 µM
[15] = second compound 1 µM, first compound 0.316 µM
[16] = second compound 1 µM, first compound 1 µM
[17] = second compound 1 µM, first compound 3.16 µM
[18] = second compound 1 µM, first compound 10 µM
[19] = second compound 3.16 µM, first compound 0.0316 µM
[20] = second compound 3.16 µM, first compound 0.1 µM
[21] = second compound 3.16 µM, first compound 0.316 µM
[22] = second compound 3.16 µM, first compound 1 µM
[23] = second compound 3.16 µM, first compound 3.16 µM
[24] = second compound 3.16 µM, first compound 10 µM
[25] = second compound 10 µM, first compound 0.0316 µM
[26] = second compound 10 µM, first compound 0.1 µM
[27] = second compound 10 µM, first compound 0.316 µM
[28] = second compound 10 µM, first compound 1 µM
[29] = second compound 10 µM, first compound 3.16 µM
[30] = second compound 10 µM, first compound 10 µM
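Note: spheroids exposed to agents for seven days before luminescence viability reading.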
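Throughout, for viability, T/C: 100% = DMSO vehicle control viability.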

Work on `O=C(c1cc(Cc2n[nH]c(=O)c3ccccc23)ccc1F)N1CCN(C(=O)C2CC2)CC1` + NC1CCC(NC2CC2c2ccccc2)CC1 yielded an IC50 (second compound 0.1 µM) of over 10000 nM, an IC50 (second compound 0.316 µM) of over 10000 nM and an IC50 (second compound 1 µM) of over 10000 nM. For the same compound, the IC50 (second compound 3.16 µM) was over 10000 nM, the IC50 (second compound 10 µM) was over 10000 nM and the viability, T/C [1] was 75.1%. The viability, T/C [2] was 79.7%, the viability, T/C [3] was 81.6% and the viability, T/C [4] was 86.5%. It also gave a viability, T/C [5] of 69.3%, a viability, T/C [6] of 91.8% and a viability, T/C [7] of 74.6%. For the same compound, the viability, T/C [8] was 74.8%, the viability, T/C [9] was 79.5% and the viability, T/C [10] was 71.2%. The viability, T/C [11] was 79.4%, the viability, T/C [12] was 77.8% and the viability, T/C [13] was 78.1%. It also gave a viability, T/C [14] of 75.8%, a viability, T/C [15] of 75.3% and a viability, T/C [16] of 72.4%. It also gave a viability, T/C [17] of 75.2%, a viability, T/C [18] of 81% and a viability, T/C [19] of 81.9%. For the same compound, the viability, T/C [20] was 81.8%, the viability, T/C [21] was 77.8% and the viability, T/C [22] was 75.6%. It also gave a viability, T/C [23] of 69.7%, a viability, T/C [24] of 71.1% and a viability, T/C [25] of 75.2%. It also gave a viability, T/C [26] of 101%, a viability, T/C [27] of 68.3% and a viability, T/C [28] of 73.4%. It also gave a viability, T/C [29] of 65% and a viability, T/C [30] of 68.8%.
With `Nc1ccccc1NC(=O)c1ccc(CNC(=O)OCc2cccnc2)cc1` + NC1CCC(NC2CC2c2ccccc2)CC1 the IC50 (second compound 0.1 µM) was 376 nM, the IC50 (second compound 0.316 µM) was 444 nM and the IC50 (second compound 1 µM) was 447 nM. The IC50 (second compound 3.16 µM) was 401 nM, the IC50 (second compound 10 µM) was 321 nM and the viability, T/C (second compound 0.1 µM, first compound 0.00949 µM) was 86.6%. For the same compound, the viability, T/C (second compound 0.1 µM, first compound 0.03 µM) was 84.9%, the viability, T/C (second compound 0.1 µM, first compound 0.0949 µM) was 76.2% and the viability, T/C (second compound 0.1 µM, first compound 0.3 µM) was 61.3%. For the same compound, the viability, T/C (second compound 0.1 µM, first compound 0.949 µM) was 5.83%, the viability, T/C (second compound 0.1 µM, first compound 3 µM) was 0.14% and the viability, T/C (second compound 0.316 µM, first compound 0.00949 µM) was 79.7%. For the same compound, the viability, T/C (second compound 0.316 µM, first compound 0.03 µM) was 82.1%, the viability, T/C (second compound 0.316 µM, first compound 0.0949 µM) was 83.7% and the viability, T/C (second compound 0.316 µM, first compound 0.3 µM) was 70.8%. For the same compound, the viability, T/C (second compound 0.316 µM, first compound 0.949 µM) was 9.57%, the viability, T/C (second compound 0.316 µM, first compound 3 µM) was 0.15% and the viability, T/C (second compound 1 µM, first compound 0.00949 µM) was 80.3%. For the same compound, the viability, T/C (second compound 1 µM, first compound 0.03 µM) was 89%, the viability, T/C (second compound 1 µM, first compound 0.0949 µM) was 92% and the viability, T/C (second compound 1 µM, first compound 0.3 µM) was 70.6%. It also gave a viability, T/C (second compound 1 µM, first compound 0.949 µM) of 10.4%, a viability, T/C (second compound 1 µM, first compound 3 µM) of 0.13% and a viability, T/C (second compound 3.16 µM, first compound 0.00949 µM) of 79.9%. It also gave a viability, T/C (second compound 3.16 µM, first compound 0.03 µM) of 88.2%, a viability, T/C (second compound 3.16 µM, first compound 0.0949 µM) of 80.2% and a viability, T/C (second compound 3.16 µM, first compound 0.3 µM) of 65.2%. For the same compound, the viability, T/C (second compound 3.16 µM, first compound 0.949 µM) was 5.24%, the viability, T/C (second compound 3.16 µM, first compound 3 µM) was 0.16% and the viability, T/C (second compound 10 µM, first compound 0.00949 µM) was 84.1%. For the same compound, the viability, T/C (second compound 10 µM, first compound 0.03 µM) was 90.7%, the viability, T/C (second compound 10 µM, first compound 0.0949 µM) was 88.7% and the viability, T/C (second compound 10 µM, first compound 0.3 µM) was 53%. It also gave a viability, T/C (second compound 10 µM, first compound 0.949 µM) of 1.77% and a viability, T/C (second compound 10 µM, first compound 3 µM) of 0.2%.
`CC(C)c1c(-c2ccccc2)nc2c(C#N)c[nH]n2c1=O` + NC1CC1c1ccc(-c2cccc(O)c2)cc1 showed an IC50 (second compound 0.1 µM) of over 10000 nM, an IC50 (second compound 0.316 µM) of over 10000 nM and an IC50 (second compound 1 µM) of over 10000 nM. The IC50 (second compound 3.16 µM) was over 10000 nM, the IC50 (second compound 10 µM) was over 10000 nM and the viability, T/C [1] was 84%. For the same compound, the viability, T/C [2] was 114%, the viability, T/C [3] was 71% and the viability, T/C [4] was 86.7%. The viability, T/C [5] was 73.1%, the viability, T/C [6] was 76.3% and the viability, T/C [7] was 119%. The viability, T/C [8] was 84.1%, the viability, T/C [9] was 65.9% and the viability, T/C [10] was 86%. It also gave a viability, T/C [11] of 90.8%, a viability, T/C [12] of 74.8% and a viability, T/C [13] of 82.3%. It also gave a viability, T/C [14] of 62.7%, a viability, T/C [15] of 72.6% and a viability, T/C [16] of 65%. The viability, T/C [17] was 70.1%, the viability, T/C [18] was 69.8% and the viability, T/C [19] was 85.5%. For the same compound, the viability, T/C [20] was 79%, the viability, T/C [21] was 91.4% and the viability, T/C [22] was 66.9%. It also gave a viability, T/C [23] of 67.3%, a viability, T/C [24] of 72.2% and a viability, T/C [25] of 78.8%. The viability, T/C [26] was 86.2%, the viability, T/C [27] was 84.8% and the viability, T/C [28] was 76.5%. For the same compound, the viability, T/C [29] was 70.8% and the viability, T/C [30] was 76.8%.
`Cn1ncnc1C1c2n[nH]c(=O)c3cc(F)cc(c23)NC1c1ccc(F)cc1` (stereo not given) + NC1CC1c1ccc(-c2cccc(O)c2)cc1 showed an IC50 (second compound 0.1 µM) of over 100 nM, an IC50 (second compound 0.316 µM) of over 100 nM and an IC50 (second compound 1 µM) of over 100 nM. It also gave an IC50 (second compound 3.16 µM) of over 100 nM, an IC50 (second compound 10 µM) of over 100 nM and a viability, T/C (second compound 0.1 µM, first compound 0.000316 µM) of 92.8%. The viability, T/C (second compound 0.1 µM, first compound 0.001 µM) was 121%, the viability, T/C (second compound 0.1 µM, first compound 0.00316 µM) was 104% and the viability, T/C (second compound 0.1 µM, first compound 0.01 µM) was 88.4%. It also gave a viability, T/C [1] of 77.6%, a viability, T/C [2] of 77.8% and a viability, T/C (second compound 0.316 µM, first compound 0.000316 µM) of 101%. For the same compound, the viability, T/C (second compound 0.316 µM, first compound 0.001 µM) was 105%, the viability, T/C (second compound 0.316 µM, first compound 0.00316 µM) was 84.4% and the viability, T/C (second compound 0.316 µM, first compound 0.01 µM) was 85.8%. For the same compound, the viability, T/C [7] was 93.8%, the viability, T/C [8] was 73.3% and the viability, T/C (second compound 1 µM, first compound 0.000316 µM) was 108%. The viability, T/C (second compound 1 µM, first compound 0.001 µM) was 96.7%, the viability, T/C (second compound 1 µM, first compound 0.00316 µM) was 84.5% and the viability, T/C (second compound 1 µM, first compound 0.01 µM) was 94.2%. The viability, T/C [13] was 78.3%, the viability, T/C [14] was 102% and the viability, T/C (second compound 3.16 µM, first compound 0.000316 µM) was 91.7%. For the same compound, the viability, T/C (second compound 3.16 µM, first compound 0.001 µM) was 96.9%, the viability, T/C (second compound 3.16 µM, first compound 0.00316 µM) was 93.6% and the viability, T/C (second compound 3.16 µM, first compound 0.01 µM) was 101%. For the same compound, the viability, T/C [19] was 102%, the viability, T/C [20] was 75.8% and the viability, T/C (second compound 10 µM, first compound 0.000316 µM) was 108%. For the same compound, the viability, T/C (second compound 10 µM, first compound 0.001 µM) was 111%, the viability, T/C (second compound 10 µM, first compound 0.00316 µM) was 126% and the viability, T/C (second compound 10 µM, first compound 0.01 µM) was 94.9%. For the same compound, the viability, T/C [25] was 96% and the viability, T/C [26] was 86.5%.
